Target: T1, HisJ (Escherichia coli, UniProt P0AEU0)
T1 construct: HisJ (241 residues)
Assay: […] HSQC/TROSY NMR chemical shift perturbation titration, global fit of all 1H and […] shifts
Type: binding

T1 sequence (P0AEU0 23-260): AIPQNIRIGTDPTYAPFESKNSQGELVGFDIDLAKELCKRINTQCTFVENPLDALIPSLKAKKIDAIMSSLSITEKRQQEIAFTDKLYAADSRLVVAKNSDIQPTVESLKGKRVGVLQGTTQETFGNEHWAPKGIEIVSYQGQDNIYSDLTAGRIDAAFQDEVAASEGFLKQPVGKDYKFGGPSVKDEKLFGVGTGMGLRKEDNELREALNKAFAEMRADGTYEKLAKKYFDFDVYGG

## NCCCC[C@H](N)C(=O)O [lysine]
  Kd: 55.3 ± 0.4 µM

Reference: PMC9427925, “The measurement of binding affinities by NMR chemical shift perturbation” (Journal of Biomolecular Nmr, 2022)
